The results in this text go back to publication PMC5589576, “Targeting the apoptotic Mcl-1-PUMA interface with a dual-acting compound” (Oncotarget, 2017).

Molecules are shown by their SMILES.

Experiment [1] concerns the target T1, Mcl-1R244A (Homo sapiens, UniProt Q07820, R263A).
T1 construct: implied by Ni2+-NTA purification from pET-43.1a(+)); made in house; host or cells: E. coli BL21
Nature of the experiment: FPA competition assay, mutant Mcl-1 R244A. In kind it is binding. As to the method:
(§1) 1 protein was induced by 0.6 mM IPTG for 20 h in the Flow cytometry condition of 20°C, 160 rpm. The strains were harvested by centrifugation (6000 rpm, 10 min, 4°C) and broken Tested cells (A2780, MCF-7 and SMMC-7721) by ultrasonication (10 s operation and 10 s stop, 5 min). were plated in 6-well plates (1×10^5 cells/well) and treated […]
(§2) All cells were detached by trypsin and washed manufacturer ’s instructions. The purified Mcl-1 was (three times) by precooled PBS. The resuspended cells analyzed by 15% SDS-PAGE and dialyzed against 10 mM were stained by Annexin V-FITC and PI in sequence PBS (pH 7.4) before being stored under −80°C for later use. before being detected by flow cytometry.
(§3) FPA competition assays The FITC labelled
(§4) BH3 peptide of Mcl-1 (FITC-Mcl-BH3, FITC-AHx-Western blot analysis […]
(§5) and used as fluorescence probe in the FPA competition A2780, MCF-7 and SMMC-7721 cells treated with assays. All assays were performed in the assay and without Comp8 were harvested, washed by precooled

Experiment [2] addresses T2, Mcl-1N241A (Homo sapiens, UniProt Q07820, N260A).
T2 construct: implied by Ni2+-NTA purification from pET-43.1a(+)); made in house; host or cells: E. coli BL21
Nature of the experiment: FPA competition assay, mutant Mcl-1 N241A. It is filed as binding. As to the method: as §1, §2, §3, §4, §5

Experiment [3] has as its system A2780, MCF-7 and SMMC-7721. Nature of the experiment: Flow cytometry detection of apoptosis (Annexin V-FITC/PI). In kind it is cell-based. To be noted: 48h; 47.42 μM for A2780 and MCF-7, 27.80 μM for SMMC-7721. The method, then: After cleared by centrifugation (12000 rpm, 30 min) and with/without the given concentration of Comp8 for 48h filtration (0.44 μm filter membrane), the lysate was purified (47.42 μM for A2780 and MCF-7, 27.80 μM for SMMC-by Ni2+-NTA sepharose gel column (7Sea) following the 7721). All cells were detached by trypsin and washed manufacturer ’s instructions. The purified Mcl-1 was (three times) by precooled PBS. The resuspended cells analyzed by 15% SDS-PAGE and dialyzed against 10 mM were stained by Annexin V-FITC and PI in sequence PBS (pH 7.4) before being stored under −80°C for later use. before being detected by flow cytometry. […]
(§6) (Nunc). To check the interference effects of candidate membranes. […]
(§7) Microplate Spectrophotometer with excitation wavelength (Boster). being 432 nm. The IC50 calculations were performed by Graphpad Prism 5 (Graphpad software, Inc.). Key residues discovery
(§8) Tests of candidate compounds on suppressing In the present study, key residues involved in the […]
(§9) by using site-directed mutagenesis and FPA competition
Cell lines including A2780, MCF-7 and SMMC- assays in combination. According to the results of pairwise 7721 were cultured to the logarithmic growth phase per-residue free energy decomposition, the residues in 3 ml complete media (RPMI1640 plus 10%FBS), contributing a lot to the binding of PUMA/Comp8 to 4 Mcl-1 were subjected to site-directed mutagenesis. […]
(In general: Flow cytometry measures light scatter and fluorescence of single cells or particles in a stream.)

Experiment [4] deals with A2780, MCF-7 and SMMC-7721. Nature of the experiment: MTT test, three cancer cell lines together. To be noted: on A2780, MCF-7 and SMMC-7721, range over the three lines. In kind it is cell-based. As to the method:
as §6, §7, §8, §9
Cell lines including A2780, MCF-7 and SMMC- assays in combination. According to the results of pairwise 7721 were cultured to the logarithmic growth phase per-residue free energy decomposition, the residues in 3 ml complete media (RPMI1640 plus 10%FBS), contributing a lot to the binding of PUMA/Comp8 to 4 Mcl-1 were subjected to site-directed mutagenesis. By respectively. After adjusting their concentrations to 5×10 reference to the primers listed in Supplementary Table5, cells/ml with complete media, these cell lines were plated overlapping extension PCR was conducted to realize into 96-well, transparent, flat-bottom plates (150 μl/well), site-directed mutagenesis. After verified by gene each point was prepared in three replicates. The density sequencing, the individually mutated PCR products were of cultured cell lines was evaluated by MTT tests. When cloned into the expressing vector pET-43.1a (+). […]
A general note: Formazan colour is commonly taken as a measure of viable cells.

T1 sequence (Q07820 172-327 R263A): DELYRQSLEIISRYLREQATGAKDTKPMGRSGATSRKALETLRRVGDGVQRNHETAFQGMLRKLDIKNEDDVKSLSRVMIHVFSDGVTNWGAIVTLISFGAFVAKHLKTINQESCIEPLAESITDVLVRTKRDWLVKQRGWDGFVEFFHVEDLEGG
T2 sequence (Q07820 172-327 N260A): as the sequence (Q07820 172-327 R263A) above, with N89A, A92R counted along it

Consider `O=C1N=C(N2CCN(CCO)CC2)S/C1=C\c1ccc(-c2ccccc2)cc1` [Comp8], for which the results for the Ki in experiment [1] and in experiment [2] were 3.52 ± 0.59 µM and 1.95 ± 0.45 µM, respectively. Besides, in experiment [3], the “apoptotic cells (FCM)” value is given as “substantial increase of apoptotic cells”. Further, the IC50 in experiment [4] lay within 20 to 50 µM.

For orientation: Ki means the dissociation constant of the complex between target and ligand, obtained from inhibition or displacement. Read a high Ki as a looser hold on the target. What is called IC50 is the concentration needed to halve the response being measured.
